From US5270302A, “Derivatives of tetrapeptides as CCK agonists” (priority 1991, dated 1993)
Where two headings read alike, the source gives them in different places. *1 amine or outer side, *2 acyl side, *3 side chain or, on linkers, in order; H or OH if unused. Where a SMILES comes first, the peptide text is derived from it. Side-chain parts run from the residue outwards. [ ]: non-standard residue; d: D form. The star is where a group is joined. Acryloyl(3-(pyridin-3-yl)) = O=C(C=Cc1cccnc1)*; Butanoyl(3,3-Me2) = CC(C)(C)CC(=O)*; NMeF = CN[C@@H](Cc1ccccc1)C(=O)O; X10 = COc1ccc(C=CC(=O)*)c(OC)c1; Cha = N[C@@H](CC1CCCCC1)C(=O)O; NMeD = CN[C@@H](CC(=O)O)C(=O)O; NH(2-Me-phenyl) = Cc1ccccc1N*; X9 = CN(C)c1ccc(C=CC(=O)*)cc1; X1 = O=C(C=Cc1ccc(O)cc1)*; Cbz = O=C(OCc1ccccc1)*; PhAc = O=C(Cc1ccccc1)*; Boc = CC(C)(C)OC(=O)*; X24 = CC(C)c1ccccc1N*; CO = O=C([*:1])[*:2]; X6 = O=C(Oc1ccccc1)*; NHPh = c1ccc(N*)cc1; NHtBu = CC(C)(C)N*

How the values were obtained:
[1] = molecular target: T1, Type-A CCK receptor (Cavia porcellus, UniProt Q63931); experiment: Radioligand binding of [125I]BH-CCK-8 in guinea pig pancreatic membrane preparations
T1 construct: Cortical and pancreatic membranes were prepared as described; from tissue; host or cells: guinea pig pancreas membranes
T1 sequence (Q63931 1-430): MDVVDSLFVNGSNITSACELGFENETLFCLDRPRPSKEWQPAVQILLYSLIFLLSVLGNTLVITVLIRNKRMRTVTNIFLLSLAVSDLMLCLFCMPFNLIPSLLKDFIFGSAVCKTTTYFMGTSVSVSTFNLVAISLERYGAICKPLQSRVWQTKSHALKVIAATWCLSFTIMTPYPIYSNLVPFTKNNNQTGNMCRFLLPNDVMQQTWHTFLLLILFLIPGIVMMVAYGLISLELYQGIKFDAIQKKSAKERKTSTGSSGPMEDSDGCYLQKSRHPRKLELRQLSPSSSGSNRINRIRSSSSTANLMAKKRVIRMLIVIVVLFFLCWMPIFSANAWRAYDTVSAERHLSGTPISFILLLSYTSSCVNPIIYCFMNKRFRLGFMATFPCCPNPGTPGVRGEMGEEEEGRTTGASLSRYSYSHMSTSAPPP
Excerpt: (§1) CCK-8 [Asp-Tyr(SO3 H)-Met-Gly-Trp-Met-Asp-PheNH2 ], bestatin and phosphoramidion were purchased from Peptide International (Louisville, Ky.). EGTA (ethylene glycol-bis-(β-aminoethyl) N,N,N',N'-tetraacetic acid), HEPES (4-(2-hydroxyethyl)-1-piperazine-enthanesulfonic acid) and BSA (bovine serum albumin) were purchased from Sigma Chemical Co. (St. Louis, Mo.). [^125 I]-Bolton-Hunteer (BH-CCK-8) (specific activity, 2200 Ci/mmol) was obtained from New England Nuclear (Boston, Mass.). Male guinea pigs, 250 to 325 g, were obtained from Scientific Small Animal Laboratory and Farm (Arlington Heights, Ill.). Collagenase, code CLSPA was purchased from Worthington (Frehold, N.J.).
(§2) Protocol For Radioligand Binding Experiments in Guinea Pig Cerebral Cortical and Pancreatic Membrane Preparations
(§3) Cortical and pancreatic membranes were prepared as described (Lin and Miller; J. Pharmacol. Exp. Ther. 1985, 232:775-780,). In brief, cortex and pancreas were removed and rinsed with ice-cold saline. Visible fat and connective tissues were removed from the pancreas. […] The homogenates were entrifuged for 10 minutes at 1075×g and pellets were discarded. The supernatants were saved and centrifuged at 38,730×g for 20 minutes. The resultant pellets were rehomogenized in 25 mL of 50 mM Tris-HCl buffer with a Teflon-glass homogenizer, 5 up and down strokes. The homogenates were centrifuged again at 38,730×g for 20 minutes. Pellets werre then resuspended in 20 mM HEPES, containing 1 mM EGTA, 118 mM NaCl, 4.7 mM KCl, 5 mM MgCl2, 100 μM bestatin, 3 μM phosphoramidon, pH 7.4 at 22° C. with a Teflon-glass homogenizer, 15 up and down strokes. Resuspension volume for the cortex was 15-18 mL per gram of original wet weight and 60 mL per gram for the pancreas.
(§4) [^125 I]Bolton-Hunter CCK-8 and test compounds were diluted with HEPES-EGTA-salt buffer (see above) containing 0.5% BSA. To 1 mL Skatron polystyrene tubes were added 25 μL of test compounds, 25 μL of [^125 I]BH-CCK-8 and 200 μL of membrane suspension. The final BSA concentration was 0.1%. The cortical tissues were incubated at 30° C. for 150 minutes and pancreatic tissues were incubated at 37° C. for 150 min. Incubations were terminated by filtration using Skatron Cell Harvester and SS32 microfiber filter mats. […] IC50 s were determined from the Hill analysis.

[2] = molecular target: T2, Type-B CCK receptor (Cavia porcellus, UniProt H0VZC5); experiment: Radioligand binding of [125I]BH-CCK-8 in guinea pig cerebral cortical membrane preparations
T2 construct: Cortical and pancreatic membranes were prepared as described; from tissue; host or cells: guinea pig cerebral cortex membranes
T2 sequence (H0VZC5 1-426): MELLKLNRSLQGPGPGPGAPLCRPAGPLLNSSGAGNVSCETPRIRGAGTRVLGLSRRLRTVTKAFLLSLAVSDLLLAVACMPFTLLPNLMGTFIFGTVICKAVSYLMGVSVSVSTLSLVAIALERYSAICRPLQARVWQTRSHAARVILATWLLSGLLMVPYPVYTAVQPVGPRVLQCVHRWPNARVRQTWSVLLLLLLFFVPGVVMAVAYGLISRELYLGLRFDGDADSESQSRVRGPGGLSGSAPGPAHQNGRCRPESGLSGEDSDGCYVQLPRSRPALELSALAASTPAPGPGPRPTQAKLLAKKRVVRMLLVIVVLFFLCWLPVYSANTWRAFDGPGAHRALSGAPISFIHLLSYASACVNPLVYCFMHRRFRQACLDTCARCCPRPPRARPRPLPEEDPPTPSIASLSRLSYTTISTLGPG
Excerpt: as §1, §2, §3, §4

[3] = guinea pig pancreatic membranes, 37° C., 150 min, read-out: IC50 (nM) 125I-BH-CCK-8 Type-A receptor
[4] = guinea pig cortical membranes, 30° C., 150 minutes, read-out: IC50 (nM) 125I-BH-CCK-8 Type-B receptor
[5] = IC50 (nM) 125I-BH-CCK-8 Type-A receptor, guinea pig pancreatic membranes, 37° C., 150 min
[6] = IC50 (nM) 125I-BH-CCK-8 Type-B receptor, guinea pig cortical membranes, 30° C., 150 minutes

Row | IC50 [1, 3] [nM] | IC50 [2, 4] [nM] | SMILES | further results
1 | 120 | 2100 | CN(C)c1ccc(C=CC(=O)NCCCC[C@H](NC(=O)[C@H](Cc2c[nH]c3ccccc23)NC(=O)OC(C)(C)C)C(=O)N[C@@H](CC(=O)O)C(=O)N[C@@H](Cc2ccccc2)C(N)=O)cc1 [Example 13, t-BOC-Trp-Lys(ε-N-(4-(dimethylamino)cinnamoyl))-Asp-PheNH2] (Boc-WK(X9)DF-NH2) | 
2 |  |  | Cc1ccccc1NC(=O)NCCCC[C@H](NC(=O)[C@H](Cc1c[nH]c2ccccc12)NC(=O)Cc1ccccc1)C(=O)N[C@@H](CC(=O)O)C(=O)N(C)[C@@H](Cc1ccccc1)C(N)=O [Example 91, Phenylacetyl-Trp-Lys(ε-N-(2-methylphenyl)aminocarbonyl)-Asp-(NMe)PheNH2] (PhAc-WK([CO-NH(2-Me-phenyl)])D[NMeF]-NH2) | IC50 [1, 5]: 19 nM; IC50 [2, 6]: > 10000 nM
3 |  |  | Cc1ccccc1NC(=O)NCCCC[C@H](NC(=O)[C@H](Cc1c[nH]c2ccccc12)NC(=O)Oc1ccccc1)C(=O)N[C@@H](CC(=O)O)C(=O)N(C)[C@@H](Cc1ccccc1)C(N)=O [Example 79, Phenoxycarbonyl-Trp-Lys(ε-N-(2-methylphenyl)aminocarbonyl)-Asp-(NMe)PheNH2] (X6-WK([CO-NH(2-Me-phenyl)])D[NMeF]-NH2) | IC50 [1]: 10 nM; IC50 [2]: 7200 nM
4 |  |  | Cc1ccccc1NC(=O)NCCCC[C@H](NC(=O)[C@H](Cc1c[nH]c2ccccc12)NC(=O)OC(C)(C)C)C(=O)N[C@@H](CC(=O)O)C(=O)N1CCC[C@]1(Cc1ccccc1)C(N)=O [Example 115, t-BOC-Trp-Lys(ε-N-(2-methylphenyl)aminocarbonyl)-Asp-(S)-α-benzylprolinamide] | IC50 [1, 5]: 18 nM; IC50 [2, 6]: > 10000 nM
5 |  |  | Cc1ccccc1NC(=O)NCCCC[C@H](NC(=O)[C@H](Cc1c[nH]c2ccccc12)NC(=O)OC(C)(C)C)C(=O)N[C@@H](CC(=O)O)C(=O)N[C@@H](CC1CCCCC1)C(N)=O [Example 116, t-BOC-Trp-Lys(ε-N-(2-methylphenyl)aminocarbonyl)-Asp-ChaNH2] (Boc-WK([CO-NH(2-Me-phenyl)])D[Cha]-NH2) | IC50 [1, 5]: 10 nM; IC50 [2, 6]: 4000 nM
6 |  |  | Cc1ccccc1NC(=O)NCCCC[C@H](NC(=O)[C@H](Cc1c[nH]c2ccccc12)NC(=O)OCc1ccccc1)C(=O)N[C@@H](CC(=O)O)C(=O)N(C)[C@@H](Cc1ccccc1)C(N)=O [Example 76, Benzyloxycarbonyl-Trp-Lys(ε-N-(2-methylphenyl)aminocarbonyl)-Asp-(NMe)PheNH2] (Cbz-WK([CO-NH(2-Me-phenyl)])D[NMeF]-NH2) | IC50 [1]: 18 nM; IC50 [2]: 6400 nM
7 | 40 | 8300 | CN(C(=O)[C@H](CCCCNC(=O)C=Cc1cccnc1)NC(=O)[C@H](Cc1c[nH]c2ccccc12)NC(=O)OC(C)(C)C)[C@@H](CC(=O)O)C(=O)N[C@@H](Cc1ccccc1)C(N)=O [Example 67, t-BOC-Trp-Lys-(ε-N-3-(3-pyridyl)acrylyl)-(NMe)Asp-PheNH2] (Boc-WK(Acryloyl(3-(pyridin-3-yl)))[NMeD]F-NH2) | 
8 |  |  | Cc1ccccc1NC(=O)NCCCC[C@H](NC(=O)[C@H](Cc1c[nH]c2ccccc12)NC(=O)CC(C)(C)C)C(=O)N[C@@H](CC(=O)O)C(=O)N(C)[C@@H](Cc1ccccc1)C(N)=O [Example 87, t-Butylacetyl-Trp-Lys(ε-N-(2-methylphenyl)aminocarbonyl)-Asp-(NMe)PheNH2] ({Butanoyl(3,3-Me2)}-WK([CO-NH(2-Me-phenyl)])D[NMeF]-NH2) | IC50 [1, 5]: 4.5 nM; IC50 [2, 6]: 8400 nM
9 | 14 | 2500 | Cc1ccccc1NC(=O)NCCCC[C@H](NC(=O)CCc1c[nH]c2ccccc12)C(=O)N(C)[C@@H](CC(=O)O)C(=O)N(C)[C@@H](Cc1ccccc1)C(N)=O [Example 102] | 
10 | 130 | 3000 | COc1ccc(C=CC(=O)NCCCC[C@H](NC(=O)[C@H](Cc2c[nH]c3ccccc23)NC(=O)OC(C)(C)C)C(=O)N[C@@H](CC(=O)O)C(=O)N[C@@H](Cc2ccccc2)C(N)=O)c(OC)c1 [Example 23, t-BOC-Trp-Lys(ε-N-(2,4-dimethoxycinnamoyl))-Asp-PheNH2] (Boc-WK(X10)DF-NH2) | 
11 | 15 | > 10000 | Cc1ccccc1NC(=O)NCCCC[C@H](NC(=O)C(F)Cc1c[nH]c2ccccc12)C(=O)N(C)[C@@H](CC(=O)O)C(=O)N[C@@H](Cc1ccccc1)C(N)=O (stereo partly shown) [Example 109, (2-Fluoro-3-(3-indolyl)propionyl)-Lys(ε-N-(2-methylphenyl)aminocarbonyl)-(NMe)Asp-PheNH2] | 
12 | 14 | 10000 | Cc1ccccc1NC(=O)NCCCC[C@H](NC(=O)C(F)Cc1c[nH]c2ccccc12)C(=O)N[C@@H](CC(=O)O)C(=O)N(C)[C@@H](Cc1ccccc1)C(N)=O (stereo partly shown) [Example 108, (2-Fluoro-3-(3-indolyl)propionyl)-Lys(ε-N-(2-methylphenyl)aminocarbonyl)-Asp-(NMe)PheNH2] | 
13 |  | 5600 | CC(C)(C)NC(=O)NCCCC[C@H](NC(=O)[C@H](Cc1c[nH]c2ccccc12)NC(=O)OC(C)(C)C)C(=O)N[C@@H](CC(=O)O)C(=O)N[C@@H](Cc1ccccc1)C(N)=O [Example 32, t-BOC-Trp-Lys(ε-N-(t-butylaminocarbonyl))-Asp-PheNH2] (Boc-WK([CO-NHtBu])DF-NH2) | 

Row | SMILES | IC50 [1, 3] [nM] | IC50 [2, 4] [nM] | further results
14 | CN(C(=O)[C@H](CCCCNC(=O)C=Cc1ccc(O)cc1)NC(=O)[C@H](Cc1c[nH]c2ccccc12)NC(=O)OC(C)(C)C)[C@@H](CC(=O)O)C(=O)N(C)[C@@H](Cc1ccccc1)C(N)=O [Example 72, t-BOC-Trp-Lys(ε-N-(4-hydroxycinnamoyl))-(NMe)Asp-(NMe)PheNH2] (Boc-WK(X1)[NMeD][NMeF]-NH2) | 12 | > 9000 | 
15 | CN(C(=O)[C@H](CCCCNC(=O)C=Cc1ccc(O)cc1)NC(=O)[C@H](Cc1c[nH]c2ccccc12)NC(=O)OC(C)(C)C)[C@@H](CC(=O)O)C(=O)N[C@@H](Cc1ccccc1)C(N)=O [Example 71, t-BOC-Trp-Lys(ε-N-(4-hydroxycinnamoyl))-(NMe)Asp-PheNH2] (Boc-WK(X1)[NMeD]F-NH2) | 4.9 | 5800 | 
16 | CC(C)c1ccccc1NC(=O)NCCCC[C@H](NC(=O)[C@H](Cc1c[nH]c2ccccc12)NC(=O)OC(C)(C)C)C(=O)N[C@@H](CC(=O)O)C(=O)N[C@@H](Cc1ccccc1)C(N)=O [Example 41, t-BOC-Trp-Lys(ε-N-(2-isopropylphenyl)aminocarbonyl)-Asp-PheNH2] (Boc-WK([CO-X24])DF-NH2) |  | 5700 | 
17 | CC(C)(C)OC(=O)N[C@@H](Cc1c[nH]c2ccccc12)C(=O)N[C@@H](CCCCNC(=O)Nc1ccccc1)C(=O)N[C@@H](CC(=O)O)C(=O)N[C@@H](Cc1ccccc1)C(N)=O [Example 29, t-BOC-Trp-Lys(ε-N-(phenylaminocarbonyl))-Asp-PheNH2] (Boc-WK([CO-NHPh])DF-NH2) |  | 1100 | 
